In patent US20110086759A1, “CHEMICAL COMPOUNDS” (SYNGENTA CROP PROTECTION, INC., priority 2007, published 2011):

Assays:
Type in all cases: in vivo
[1] = system: Alopecurus myosuroides (ALOMY); test: Pre-emergence biological efficacy, glasshouse pot test; details: 312 h, pre-emergence, rate 1,000 g/ha, evaluated after 13 days (100=total damage to plant; 0=no damage), read-out: Percentage damage caused to weed species, ALOMY
Procedure, shortened: (§1)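 Sow seeds in pots of standard soil; after one day in the glasshouse, spray test compound (1000 or 250 g/ha) in aqueous acetone/water with 0.5% Tween 20. Grow 13 days at 24/16 °C day/night, then score damage from 0 to 100.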

[2] = system: Amaranthus retoflexus (AMARE); test: as above; details: Amaranthus retroflexus, 312 h; pre-emergence, rate 1,000 g/ha, evaluated after 13 days (100=total damage to plant; 0=no damage); read-out: Percentage damage caused to weed species, AMARE
Procedure, shortened: as §1

[3] = system: Echinochloa crus-galli (ECHCG); test: as above; details: 312 h, pre-emergence, rate 1,000 g/ha, evaluated after 13 days (100=total damage to plant; 0=no damage), read-out: Percentage damage caused to weed species, ECHCG
Procedure, shortened: as §1

[4] = system: Ipomea hederaceae (IPOHE); test: as above; details: Ipomoea hederacea, 312 h; pre-emergence, rate 1,000 g/ha, evaluated after 13 days (100=total damage to plant; 0=no damage); read-out: Percentage damage caused to weed species, IPOHE
Procedure, shortened: as §1

[5] = system: Setaria faberi (SETFA); test: as above; details: 312 h, pre-emergence, rate 1,000 g/ha, evaluated after 13 days (100=total damage to plant; 0=no damage), read-out: Percentage damage caused to weed species, SETFA
Procedure, shortened: as §1

[6] = system: Solanum nigrum (SOLNI); test: as above; details: 312 h, pre-emergence, rate 1,000 g/ha, evaluated after 13 days (100=total damage to plant; 0=no damage), read-out: Percentage damage caused to weed species, SOLNI
Procedure, shortened: as §1

[7] = system: Alopecurus myosuroides (ALOMY); test: Post-emergence biological efficacy, glasshouse pot test; details: 312 h, Rate 1,000 g/ha, post-emergence spray, evaluated after 13 days (100=total damage to plant; 0=no damage to plant), read-out: Percentage damage caused to weed species, post-emergence, ALOMY
Procedure, shortened: (§2)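 Scored 13 days after spraying on a 0 (no damage) to 100 (total damage) scale. Treatment was a post-emergence spray at 1000 or 250 g/ha, from acetone/water 50:50 plus 0.5% Tween 20, onto 8-day-old plants in soil pots. Growth at 24/16° C, 14 h photoperiod, 65% humidity, watered twice daily.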

[8] = system: Amaranthus retoflexus (AMARE); test: as above; details: Amaranthus retroflexus, 312 h; Rate 1,000 g/ha; post-emergence spray; evaluated after 13 days (100=total damage to plant; 0=no damage to plant); read-out: Percentage damage caused to weed species, post-emergence, AMARE
Procedure, shortened: as §2

[9] = system: Echinochloa crus-galli (ECHCG); test: as above; details: 312 h, Rate 1,000 g/ha, post-emergence spray, evaluated after 13 days (100=total damage to plant; 0=no damage to plant), read-out: Percentage damage caused to weed species, post-emergence, ECHCG
Procedure, shortened: as §2

[10] = system: Ipomea hederaceae (IPOHE); test: as above; details: Ipomoea hederacea, 312 h; Rate 1,000 g/ha; post-emergence spray; evaluated after 13 days (100=total damage to plant; 0=no damage to plant); read-out: Percentage damage caused to weed species, post-emergence, IPOHE
Procedure, shortened: as §2

[11] = system: Setaria faberi (SETFA); test: as above; details: 312 h, Rate 1,000 g/ha, post-emergence spray, evaluated after 13 days (100=total damage to plant; 0=no damage to plant), read-out: Percentage damage caused to weed species, post-emergence, SETFA
Procedure, shortened: as §2

[12] = system: Solanum nigrum (SOLNI); test: as above; details: 312 h, Rate 1,000 g/ha, post-emergence spray, evaluated after 13 days (100=total damage to plant; 0=no damage to plant), read-out: Percentage damage caused to weed species, post-emergence, SOLNI
Procedure, shortened: as §2

## COC(=O)c1nc(C2CC2)nc(N(C)Cc2ccc(F)cc2)c1Cl [Compound 5-66, 5-Chloro-2-cyclopropyl-4-[N-(4-fluorophenylmethyl)-N-methyl-amino]-6-methoxy-carbonylpyrimidine]
[1]
  pest or weed control at 1000 g/ha: 30%
[2]
  pest or weed control at 1000 g/ha: 100%
[3]
  pest or weed control at 1000 g/ha: 40%
[4]
  pest or weed control at 1000 g/ha: 70%
[5]
  pest or weed control at 1000 g/ha: 60%
[6]
  pest or weed control at 1000 g/ha: 60%
[7]
  pest or weed control at 1000 g/ha: 20%
[8]
  pest or weed control at 1000 g/ha: 100%
[9]
  pest or weed control at 1000 g/ha: 40%
[10]
  pest or weed control at 1000 g/ha: 100%
[11]
  pest or weed control at 1000 g/ha: 80%
[12]
  pest or weed control at 1000 g/ha: 90%

## COC(=O)c1nc(C2CC2)nc(N(C)Cc2ccc(Br)cc2)c1Cl [Compound 5-69, 4-[N-(4-Bromo-phenylmethyl)-N-methyl-amino]-5-chloro-2-cyclo-propyl-6-methoxy-carbonylpyrimidine]
[1]
  pest or weed control at 1000 g/ha: 10%
[2]
  pest or weed control at 1000 g/ha: 70%
[3]
  pest or weed control at 1000 g/ha: 10%
[4]
  pest or weed control at 1000 g/ha: 50%
[5]
  pest or weed control at 1000 g/ha: 0%
[6]
  pest or weed control at 1000 g/ha: 20%
[7]
  pest or weed control at 1000 g/ha: 30%
[8]
  pest or weed control at 1000 g/ha: 100%
[9]
  pest or weed control at 1000 g/ha: 50%
[10]
  pest or weed control at 1000 g/ha: 80%
[11]
  pest or weed control at 1000 g/ha: 70%
[12]
  pest or weed control at 1000 g/ha: 80%

## COC(=O)c1nc(C2CC2)nc(N(C)Cc2ccc(C)cc2)c1Cl [Compound 5-73, 5-Chloro-2-cyclopropyl-6-methoxycarbonyl-4-[N-methyl-N-(4-methylphenyl)-methylamino]-pyrimidine]
[1]
  pest or weed control at 1000 g/ha: 0%
[2]
  pest or weed control at 1000 g/ha: 80%
[3]
  pest or weed control at 1000 g/ha: 0%
[4]
  pest or weed control at 1000 g/ha: 30%
[5]
  pest or weed control at 1000 g/ha: 0%
[6]
  pest or weed control at 1000 g/ha: 20%
[7]
  pest or weed control at 1000 g/ha: 10%
[8]
  pest or weed control at 1000 g/ha: 100%
[9]
  pest or weed control at 1000 g/ha: 10%
[10]
  pest or weed control at 1000 g/ha: 100%
[11]
  pest or weed control at 1000 g/ha: 50%
[12]
  pest or weed control at 1000 g/ha: 70%

## COC(=O)c1nc(C2CC2)nc(N(C)Cc2cccc(C(F)(F)F)c2)c1Cl [Compound 5-76, 5-Chloro-2-cyclopropyl-6-methoxycarbonyl-4-[N-methyl-N-(3-trifluoromethyl-phenylmethyl)-amino]pyrimidine]
[1]
  pest or weed control at 1000 g/ha: 10%
[2]
  pest or weed control at 1000 g/ha: 80%
[3]
  pest or weed control at 1000 g/ha: 20%
[4]
  pest or weed control at 1000 g/ha: 60%
[5]
  pest or weed control at 1000 g/ha: 30%
[6]
  pest or weed control at 1000 g/ha: 40%
[7]
  pest or weed control at 1000 g/ha: 40%
[8]
  pest or weed control at 1000 g/ha: 100%
[9]
  pest or weed control at 1000 g/ha: 50%
[10]
  pest or weed control at 1000 g/ha: 90%
[11]
  pest or weed control at 1000 g/ha: 80%
[12]
  pest or weed control at 1000 g/ha: 90%

## COC(=O)c1nc(C2CC2)nc(N(C)Cc2ccc(C(F)(F)F)cc2)c1Cl [Compound 5-77, 5-Chloro-2-cyclopropyl-6-methoxycarbonyl-4-[N-methyl-N-(4-trifluoromethyl-phenyl)methyl-amino]pyrimidine]
[1]
  pest or weed control at 1000 g/ha: 0%
[2]
  pest or weed control at 1000 g/ha: 90%
[3]
  pest or weed control at 1000 g/ha: 0%
[4]
  pest or weed control at 1000 g/ha: 20%
[5]
  pest or weed control at 1000 g/ha: 0%
[6]
  pest or weed control at 1000 g/ha: 20%
[7]
  pest or weed control at 1000 g/ha: 20%
[8]
  pest or weed control at 1000 g/ha: 100%
[9]
  pest or weed control at 1000 g/ha: 40%
[10]
  pest or weed control at 1000 g/ha: 100%
[11]
  pest or weed control at 1000 g/ha: 50%
[12]
  pest or weed control at 1000 g/ha: 100%

## COC(=O)c1nc(C2CC2)nc(N(C)Cc2cccc(OC)c2)c1Cl [Compound 5-79, 5-Chloro-2-cyclopropyl-6-methoxycarbonyl-4-[N-(3-methoxy-phenylmethyl)-N-methyl-amino]-pyrimidine]
[1]
  pest or weed control at 1000 g/ha: 0%
[2]
  pest or weed control at 1000 g/ha: 70%
[3]
  pest or weed control at 1000 g/ha: 0%
[4]
  pest or weed control at 1000 g/ha: 50%
[5]
  pest or weed control at 1000 g/ha: 0%
[6]
  pest or weed control at 1000 g/ha: 40%
[7]
  pest or weed control at 1000 g/ha: 0%
[8]
  pest or weed control at 1000 g/ha: 100%
[9]
  pest or weed control at 1000 g/ha: 0%
[10]
  pest or weed control at 1000 g/ha: 70%
[11]
  pest or weed control at 1000 g/ha: 30%
[12]
  pest or weed control at 1000 g/ha: 80%

## COC(=O)c1nc(C2CC2)nc(N(C)Cc2ccc(OC)cc2)c1Cl [Compound 5-80, 5-Chloro-2-cyclopropyl-6-methoxycarbonyl-4-[N-(4-methoxy-phenyl)methyl-N-methyl-amino]-pyrimidine]
[1]
  pest or weed control at 1000 g/ha: 0%
[2]
  pest or weed control at 1000 g/ha: 100%
[3]
  pest or weed control at 1000 g/ha: 0%
[4]
  pest or weed control at 1000 g/ha: 60%
[5]
  pest or weed control at 1000 g/ha: 20%
[6]
  pest or weed control at 1000 g/ha: 30%
[7]
  pest or weed control at 1000 g/ha: 20%
[8]
  pest or weed control at 1000 g/ha: 100%
[9]
  pest or weed control at 1000 g/ha: 50%
[10]
  pest or weed control at 1000 g/ha: 100%
[11]
  pest or weed control at 1000 g/ha: 80%
[12]
  pest or weed control at 1000 g/ha: 100%

## COC(=O)c1nc(C2CC2)nc(N(C)Cc2ccc(N)cc2)c1Cl [Compound 5-86, 4-[N-(4-aminophenylmethyl)-N-methyl-amino]-5-chloro-2-cyclopropyl-6-methoxycarbonyl-pyrimidine]
[1]
  pest or weed control at 1000 g/ha: 40%
[2]
  pest or weed control at 1000 g/ha: 100%
[3]
  pest or weed control at 1000 g/ha: 50%
[4]
  pest or weed control at 1000 g/ha: 100%
[5]
  pest or weed control at 1000 g/ha: 30%
[6]
  pest or weed control at 1000 g/ha: 100%
[7]
  pest or weed control at 1000 g/ha: 40%
[8]
  pest or weed control at 1000 g/ha: 100%
[9]
  pest or weed control at 1000 g/ha: 70%
[10]
  pest or weed control at 1000 g/ha: 100%
[11]
  pest or weed control at 1000 g/ha: 90%
[12]
  pest or weed control at 1000 g/ha: 90%

## COC(=O)c1nc(C2CC2)nc(N(C)Cc2ccccc2[N+](=O)[O-])c1Cl [Compound 5-90, 5-Chloro-2-cyclopropyl-6-methoxycarbonyl-4-[N-methyl-N-(2-nitrophenylmethyl)-amino]pyrimidine]
[1]
  pest or weed control at 1000 g/ha: 20%
[2]
  pest or weed control at 1000 g/ha: 100%
[3]
  pest or weed control at 1000 g/ha: 30%
[4]
  pest or weed control at 1000 g/ha: 90%
[5]
  pest or weed control at 1000 g/ha: 30%
[6]
  pest or weed control at 1000 g/ha: 90%
[7]
  pest or weed control at 1000 g/ha: 50%
[8]
  pest or weed control at 1000 g/ha: 100%
[9]
  pest or weed control at 1000 g/ha: 70%
[10]
  pest or weed control at 1000 g/ha: 100%
[11]
  pest or weed control at 1000 g/ha: 90%
[12]
  pest or weed control at 1000 g/ha: 90%

## COC(=O)c1nc(C2CC2)nc(N(C)Cc2cccc([N+](=O)[O-])c2)c1Cl [Compound 5-91, 5-Chloro-2-cyclopropyl-6-methoxycarbonyl-4-[N-methyl-N-(3-nitrophenylmethyl)-amino]pyrimidine]
[1]
  pest or weed control at 1000 g/ha: 10%
[2]
  pest or weed control at 1000 g/ha: 70%
[3]
  pest or weed control at 1000 g/ha: 0%
[4]
  pest or weed control at 1000 g/ha: 30%
[5]
  pest or weed control at 1000 g/ha: 10%
[6]
  pest or weed control at 1000 g/ha: 60%
[7]
  pest or weed control at 1000 g/ha: 20%
[8]
  pest or weed control at 1000 g/ha: 100%
[9]
  pest or weed control at 1000 g/ha: 30%
[10]
  pest or weed control at 1000 g/ha: 80%
[11]
  pest or weed control at 1000 g/ha: 40%
[12]
  pest or weed control at 1000 g/ha: 80%
